In paper PMC3722118, “Hellebrin and its aglycone form hellebrigenin display similar in vitro growth inhibitory effects in cancer cells and binding profiles to the alpha subunits of the Na^+/K^+-ATPase” (Molecular Cancer, 2013):
Like-named read-outs stand apart in the source and are kept apart here.

Tests used:
[1] = system: human cancer cells (A549, U373, Hs683, T98G, MCF-7, SKMEL-28, PC-3, HT-29); test: MTT growth inhibition, mean over the eight human cancer cell lines; type: cell-based; conditions: 72 h, read-out: IC50 (nM) Mean ± SEM
Source text: (§1) The histological types and origins of the eight human cancer cell lines that were used for the MTT colorimetric assay are detailed in the legend of Table 1. Two mouse cancer cell lines were also used, the CT26.WT colon cancer cell line (ATCC code CRL-2638) and the B16F10 melanoma cell line (ATCC code CRL-6475). Both cell lines were obtained from the American Type Culture Collection (ATCC, Manassas, VA). A control cell line (human NHDF fibroblasts) was obtained from PromoCell (code c-12300; Heidelberg, Germany). The cell lines detailed in Figure 2A are a generous gift from the National Cancer Institute (NCI, Bethesda, USA) to Steven Karlish’s lab.
(§2) The cancer cells were cultured in RPMI (Lonza, Verviers, Belgium) medium supplemented with 10% heat-inactivated fetal calf serum (Lonza). All culture media were supplemented with 4 mM glutamine, 100 μg/mL gentamicin, 200 U/mL penicillin and 200 μg/mL streptomycin (Lonza). The NHDF fibroblasts were cultured in Lonza medium cc3132 KT FGM-2 BulletKit.
(§3) The overall growth level of the human cancer cell lines was determined using a colorimetric MTT (3-(4,5-dimethylthiazol-2yl)-2,5-diphenyltetrazolium bromide, Sigma, Belgium) assay as detailed previously. Briefly, this test measures the number of metabolically active (thus living) cells that are able to transform the yellow MTT into the blue formazan dye via a mitochondrial reduction involving succinate dehydrogenase. The amount of formazan obtained at the end of the experiment (measured by spectrophotometry) is directly proportional to the number of living cells. The determination of the optical density in the control compared to the treated cells therefore enables quantitative measurements of the effects of compounds on the growth of normal as well as cancer cells in vitro.
(§4) Each experimental condition was performed in six replicates.

[2] = molecular target: T1, human α1β1 NaK complex (Homo sapiens, UniProt P05023); conditions: 3H-ouabain displacement; ref Katz et al. [5]; read-out: Affinity (nM) α-1 (KD ± SEM); cited from earlier work
T1 construct: made in house; host or cells: Pichia pastoris strain SMD1165 (membranes)

[3] = molecular target: T2, human α2β1 NaK complex (Homo sapiens, UniProt P50993); conditions: ref Katz et al. [5], cited from earlier work; for Kd: 3H-ouabain displacement, read-out: Affinity (nM) α-2 (KD ± SEM); for Selectivity α-1 / α-2: ratio of KD α-1 to KD α-2
T2 construct: made in house; host or cells: Pichia pastoris strain SMD1165 (membranes)

[4] = system: MCF-7 breast cancer cells; test: MTT colorimetric in vitro growth inhibition assay; type: cell-based, human; conditions: read-out: IC50 (nM) MCF-7
Source text: as §1, §2, §3, §4

[5] = system: HT-29 colon cancer cells; test: MTT colorimetric in vitro growth inhibition assay; type: cell-based, human; conditions: read-out: IC50 (nM) HT-29
Source text: as §1, §2, §3, §4

[6] = system: PC-3 prostate cancer cells; test: MTT colorimetric in vitro growth inhibition assay; type: cell-based, human; conditions: read-out: IC50 (nM) PC-3
Source text: as §1, §2, §3, §4

[7] = system: A549 NSCLC cells; test: MTT colorimetric in vitro growth inhibition assay; type: cell-based, human; conditions: read-out: IC50 (nM) A549
Source text: as §1, §2, §3, §4

[8] = system: U373 glioma cells; test: MTT colorimetric in vitro growth inhibition assay; type: cell-based, human; conditions: read-out: IC50 (nM) U373
Source text: as §1, §2, §3, §4

[9] = system: T98G glioma cells; test: MTT colorimetric in vitro growth inhibition assay; type: cell-based, human; conditions: read-out: IC50 (nM) T98G
Source text: as §1, §2, §3, §4

[10] = system: SKMEL-28 melanoma cells; test: MTT colorimetric in vitro growth inhibition assay; type: cell-based, human; conditions: read-out: IC50 (nM) SKMEL-28
Source text: as §1, §2, §3, §4

[11] = system: Hs683 glioma cells; test: MTT colorimetric in vitro growth inhibition assay; type: cell-based, human; conditions: read-out: IC50 (nM) Hs683
Source text: as §1, §2, §3, §4

[12] = molecular target: T3, human α3β1 NaK complex (Homo sapiens, UniProt P13637); conditions: ref Katz et al. [5], cited from earlier work; for Kd: 3H-ouabain displacement, read-out: Affinity (nM) α-3 (KD ± SEM); for Selectivity α-1 / α-3: ratio of KD α-1 to KD α-3
T3 construct: made in house; host or cells: Pichia pastoris strain SMD1165 (membranes)

[13] = three days of culture, * three independent experiments, ** one experiment, six replicates

C[C@H]1O[C@@H](O[C@H]2[C@@H](O)C[C@H](O[C@H]3[C@@H](O)C[C@H](O[C@H]4CC[C@@]5(C)[C@H](CC[C@@H]6[C@@H]5CC[C@]5(C)[C@@H](C7=CC(=O)OC7)[C@@H](O)C[C@]65O)C4)O[C@@H]3C)O[C@@H]2C)C[C@H](O)[C@@H]1O [Gitoxin]
IC50 ([1]; Homo sapiens): 362 ± 96 nM
Kd [2]: 123 ± 8 nM
Kd [3]: 85 ± 3 nM
Selectivity α-1 / α-2 [3]: 1.5
IC50 ([4]; Homo sapiens, MCF7, 72 h): 828 nM
IC50 ([5]; Homo sapiens, HT-29, 72 h): 352 nM
IC50 ([6]; Homo sapiens, 72 h): 361 nM
IC50 ([7]; Homo sapiens, A549, 72 h): 68 nM
IC50 ([8]; Homo sapiens, U373 MG, 72 h): 351 nM
IC50 ([9]; Homo sapiens, T98G, 72 h): 174 nM
IC50 ([10]; Homo sapiens, SK-MEL-28, 72 h): 679 nM
IC50 ([11]; Homo sapiens, Hs 683, 72 h): 79 nM
Kd [12]: 108 ± 17 nM
Selectivity α-1 / α-3 [12]: 1.1

C[C@@H]1O[C@@H](O[C@H]2CC[C@@]3(C)[C@@H](CC[C@@H]4[C@@H]3CC[C@]3(C)[C@@H](C5=CC(=O)OC5)CC[C@]43O)C2)[C@H](O)[C@H](O)[C@H]1O [Uzarigenin-rhamnoside]
IC50 ([1]; mean over eight human cancer cell lines, three days of culture): 147 ± 55 nM
Kd [2]: 90 ± 20 nM
Kd [3]: 96 ± 7 nM
Selectivity α-1 / α-2 [3]: 0.9
IC50 ([4]; Homo sapiens, MCF7, 72 h, three days of culture, * three independent experiments, ** one experiment, six replicates): 469 nM
IC50 ([5]; Homo sapiens, HT-29, 72 h, three days of culture, * three independent experiments, ** one experiment, six replicates): 41 nM
IC50 ([6]; Homo sapiens, 72 h, three days of culture, * three independent experiments, ** one experiment, six replicates): 77 nM
IC50 ([7]; Homo sapiens, A549, 72 h, three days of culture, * three independent experiments, ** one experiment, six replicates): 45 nM
IC50 ([8]; Homo sapiens, U373 MG, 72 h, three days of culture, * three independent experiments, ** one experiment, six replicates): 247 nM
IC50 ([9]; Homo sapiens, T98G, 72 h, three days of culture, * three independent experiments, ** one experiment, six replicates): 38 nM
IC50 ([10]; Homo sapiens, SK-MEL-28, 72 h, three days of culture, * three independent experiments, ** one experiment, six replicates): 222 nM
IC50 ([11]; Homo sapiens, Hs 683, 72 h, three days of culture, * three independent experiments, ** one experiment, six replicates): 38 nM
Kd [12]: 122 ± 9 nM
Selectivity α-1 / α-3 [12]: 0.7

C[C@]12CC[C@H](O)C[C@@H]1CC[C@@H]1[C@@H]2CC[C@]2(C)[C@@H](C3=CC(=O)OC3)CC[C@]12O [Uzarigenin]
Kd [2]: 1100 nM
Kd [3]: 883 ± 56 nM
Selectivity α-1 / α-2 [3]: 1.3
IC50 [4, 13]: > 10000 nM
IC50 [5, 13]: 6440 nM
IC50 [6, 13]: 6280 nM
IC50 [7, 13]: 3170 nM
IC50 [8, 13]: 7920 nM
IC50 [9, 13]: 5140 nM
IC50 [10, 13]: > 10000 nM
IC50 [11, 13]: 2250 nM
Kd [12]: 1280 nM
Selectivity α-1 / α-3 [12]: 0.9
